Data taken from patent publication USRE48335E1, “Polymyxin derivatives as antimicrobial compounds” (priority 2014, dated 2020).
≈ marks a conversion by molar mass, not a printed value. Positions of bridges follow the written chain, without caps; N, C: chain ends. Non-standard residues stand in square brackets, D forms with d. Residues, ends and D or L forms follow the SMILES beside them. *: point of attachment. Benzoyl(3-CF3) = O=C(c1cccc(C(F)(F)F)c1)*; Benzoyl(4-Cl) = O=C(c1ccc(Cl)cc1)*; X12 = O=C(c1ccc(C(F)(F)F)c(F)c1)*; X9 = Cc1ccc(C(=O)*)cc1C(F)(F)F; X10 = O=C(c1cc(F)cc(Cl)c1)*; X11 = Cc1ccc(C(=O)*)cc1Cl; Dab = NCC[C@H](N)C(=O)O; Abu = CC[C@H](N)C(=O)O; Dap = NC[C@H](N)C(=O)O

Assays:
Acinetobacter baumannii = tested on: Acinetobacter baumannii
Summary of the method: (§1)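 Lipopeptide TFA salts are serially diluted in cation-adjusted Mueller-Hinton broth and inoculated per the CLSI M100-S18 broth microdilution method. The MIC is then recorded, with polymyxin B sulphate included as a control.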

Enterobacter cloacae = tested on: Enterobacter cloacae
Summary of the method: as §1

Klebsiella pneumoniae = tested on: Klebsiella pneumoniae
Summary of the method: as §1

Pseudomonas aeruginosa = tested on: Pseudomonas aeruginosa
Summary of the method: as §1

A. baumannii ATCC 19606 = test: In vivo efficacy in mouse blood infection model (neutropenic Swiss mice); settings: compound, free base 4 mg/kg intravenously 2 h after inoculation, blood at 4 h
Summary of the method: (§2)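 Activity expressed as Δlog10 CFU/mL blood, treated minus saline control, 4 h after a single 4 mg/kg (free base) i.v. dose given 2 h post-infection. Bloodstream infection from i.v. early log-phase inoculum in Swiss mice made neutropenic by i.p. cyclophosphamide on days −4 (150 mg/kg) and −1 (100 mg/kg).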

P. aeruginosa ATCC 27853 = test: as above; settings: compound, free base 4 mg/kg intravenously 2 h after inoculation, blood at 4 h
Summary of the method: as §2

SMILES | MIC (Acinetobacter baumannii) | Minimum inhibitory concentration, Ab A ATCC 17978 (Acinetobacter baumannii) | Minimum inhibitory concentration, Ab ATCC 19606 (Acinetobacter baumannii) | Minimum inhibitory concentration, Ab FADDI-AB034 (Acinetobacter baumannii) | Minimum inhibitory concentration, Ec FADDI-EC001 (Enterobacter cloacae) | Minimum inhibitory concentration, Ec FADDI-EC003 (Enterobacter cloacae) | Minimum inhibitory concentration, Ec FADDI-EC006 (Enterobacter cloacae) | MIC (Klebsiella pneumoniae) | MIC (Pseudomonas aeruginosa) | Minimum inhibitory concentration, Pa ATCC 27853 (Pseudomonas aeruginosa) | Minimum inhibitory concentration, Pa FADDI-PA022 (Pseudomonas aeruginosa) | Minimum inhibitory concentration, Pa FADDI-PA025 (Pseudomonas aeruginosa) | Δ log (Treated-Control at 4 h) (A. baumannii ATCC 19606) | Δ log (Treated-Control at 4 h) (P. aeruginosa ATCC 27853)
CC[C@@H]1NC(=O)[C@@H](CC(C)C)NC(=O)[C@H](CCN)NC(=O)[C@@H](NC(=O)[C@H](CN)NC(=O)[C@@H](NC(=O)[C@H](CCN)NC(=O)c2cc(F)cc(Cl)c2)[C@@H](C)O)CCNC(=O)[C@H]([C@@H](C)O)NC(=O)[C@H](CCN)NC(=O)[C@H](CCN)NC1=O [Compound 116] (X10-[Dab]T[Dap][Dab][Dab][dL][Abu][Dab][Dab]T; lactam 4-C) | 0.5 µg/mL (≈ 0.437 µM) | 0.5 µg/mL (≈ 0.437 µM) | 0.5 µg/mL (≈ 0.437 µM) | 0.25 µg/mL (≈ 0.219 µM) | 0.25 µg/mL (≈ 0.219 µM) | 0.25 µg/mL (≈ 0.219 µM) | 0.25 µg/mL (≈ 0.219 µM) | 0.5 µg/mL (≈ 0.437 µM) | 0.5 µg/mL (≈ 0.437 µM) | 0.5 µg/mL (≈ 0.437 µM) | 0.5 µg/mL (≈ 0.437 µM) | 1 µg/mL (≈ 0.874 µM) | −1.51 log10 CFU/mL | −2.81 log10 CFU/mL
CC[C@@H]1NC(=O)[C@@H](CC(C)C)NC(=O)[C@H](CCN)NC(=O)[C@@H](NC(=O)[C@H](CN)NC(=O)[C@@H](NC(=O)[C@H](CCN)NC(=O)c2ccc(Cl)cc2)[C@@H](C)O)CCNC(=O)[C@H]([C@@H](C)O)NC(=O)[C@H](CCN)NC(=O)[C@H](CCN)NC1=O [Compound 94] ({Benzoyl(4-Cl)}-[Dab]T[Dap][Dab][Dab][dL][Abu][Dab][Dab]T; lactam 4-C) | 1 µg/mL (≈ 0.888 µM) | 0.5 µg/mL (≈ 0.444 µM) | 1 µg/mL (≈ 0.888 µM) | 0.25 µg/mL (≈ 0.222 µM) | 0.25 µg/mL (≈ 0.222 µM) | 0.25 µg/mL (≈ 0.222 µM) | 0.5 µg/mL (≈ 0.444 µM) | 0.25 µg/mL (≈ 0.222 µM) | 0.5 µg/mL (≈ 0.444 µM) | 0.5 µg/mL (≈ 0.444 µM) | 0.5 µg/mL (≈ 0.444 µM) | 2 µg/mL (≈ 1.78 µM) | −1.26 log10 CFU/mL | −3.23 log10 CFU/mL
CC[C@@H]1NC(=O)[C@@H](CC(C)C)NC(=O)[C@H](CCN)NC(=O)[C@@H](NC(=O)[C@H](CN)NC(=O)[C@@H](NC(=O)[C@H](CCN)NC(=O)c2ccc(C(F)(F)F)c(F)c2)[C@@H](C)O)CCNC(=O)[C@H]([C@@H](C)O)NC(=O)[C@H](CCN)NC(=O)[C@H](CCN)NC1=O [Compound 111] (X12-[Dab]T[Dap][Dab][Dab][dL][Abu][Dab][Dab]T; lactam 4-C) | 0.5 µg/mL (≈ 0.425 µM) | 0.5 µg/mL (≈ 0.425 µM) | 0.5 µg/mL (≈ 0.425 µM) | 0.25 µg/mL (≈ 0.212 µM) | 0.5 µg/mL (≈ 0.425 µM) | 0.25 µg/mL (≈ 0.212 µM) | 0.25 µg/mL (≈ 0.212 µM) | 0.25 µg/mL (≈ 0.212 µM) | 1 µg/mL (≈ 0.849 µM) | 0.5 µg/mL (≈ 0.425 µM) | 1 µg/mL (≈ 0.849 µM) | 1 µg/mL (≈ 0.849 µM) | −1.66 log10 CFU/mL | −3.65 log10 CFU/mL
CC[C@@H]1NC(=O)[C@@H](CC(C)C)NC(=O)[C@H](CCN)NC(=O)[C@@H](NC(=O)[C@H](CN)NC(=O)[C@@H](NC(=O)[C@H](CCN)NC(=O)c2ccc(C)c(Cl)c2)[C@@H](C)O)CCNC(=O)[C@H]([C@@H](C)O)NC(=O)[C@H](CCN)NC(=O)[C@H](CCN)NC1=O [Compound 105] (X11-[Dab]T[Dap][Dab][Dab][dL][Abu][Dab][Dab]T; lactam 4-C) | 0.5 µg/mL (≈ 0.439 µM) | 0.5 µg/mL (≈ 0.439 µM) | 0.5 µg/mL (≈ 0.439 µM) | 0.25 µg/mL (≈ 0.219 µM) | 1 µg/mL (≈ 0.877 µM) | 0.5 µg/mL (≈ 0.439 µM) | 1 µg/mL (≈ 0.877 µM) | 0.25 µg/mL (≈ 0.219 µM) | 0.5 µg/mL (≈ 0.439 µM) | 0.5 µg/mL (≈ 0.439 µM) | 1 µg/mL (≈ 0.877 µM) | 2 µg/mL (≈ 1.75 µM) | −1.31 log10 CFU/mL | −2.54 log10 CFU/mL
CC[C@@H]1NC(=O)[C@@H](CC(C)C)NC(=O)[C@H](CCN)NC(=O)[C@@H](NC(=O)[C@H](CN)NC(=O)[C@@H](NC(=O)[C@H](CCN)NC(=O)c2ccc(C)c(C(F)(F)F)c2)[C@@H](C)O)CCNC(=O)[C@H]([C@@H](C)O)NC(=O)[C@H](CCN)NC(=O)[C@H](CCN)NC1=O [Compound 113] (X9-[Dab]T[Dap][Dab][Dab][dL][Abu][Dab][Dab]T; lactam 4-C) | 0.5 µg/mL (≈ 0.426 µM) | 0.25 µg/mL (≈ 0.213 µM) | 0.5 µg/mL (≈ 0.426 µM) | 0.25 µg/mL (≈ 0.213 µM) | 1 µg/mL (≈ 0.852 µM) | 0.25 µg/mL (≈ 0.213 µM) | 1 µg/mL (≈ 0.852 µM) | 0.25 µg/mL (≈ 0.213 µM) | 0.5 µg/mL (≈ 0.426 µM) | 1 µg/mL (≈ 0.852 µM) | 0.5 µg/mL (≈ 0.426 µM) | 2 µg/mL (≈ 1.7 µM) | −1.60 log10 CFU/mL | −2.61 log10 CFU/mL
CC[C@@H]1NC(=O)[C@@H](CC(C)C)NC(=O)[C@H](CCN)NC(=O)[C@@H](NC(=O)[C@@H](CO)NC(=O)[C@@H](NC(=O)[C@H](CCN)NC(=O)c2cccc(C(F)(F)F)c2)[C@@H](C)O)CCNC(=O)[C@H]([C@@H](C)O)NC(=O)[C@H](CCN)NC(=O)[C@H](CCN)NC1=O [Compound 18] ({Benzoyl(3-CF3)}-[Dab]T[dS][Dab][Dab][dL][Abu][Dab][Dab]T; lactam 4-C) | 0.5 µg/mL (≈ 0.431 µM) | 0.5 µg/mL (≈ 0.431 µM) | 0.5 µg/mL (≈ 0.431 µM) | 0.5 µg/mL (≈ 0.431 µM) | 1 µg/mL (≈ 0.862 µM) | 0.5 µg/mL (≈ 0.431 µM) | 0.5 µg/mL (≈ 0.431 µM) | 0.25 µg/mL (≈ 0.215 µM) | 8 µg/mL (≈ 6.89 µM) | 8 µg/mL (≈ 6.89 µM) | 8 µg/mL (≈ 6.89 µM) | 2 µg/mL (≈ 1.72 µM) | −1.57 log10 CFU/mL | 
